Patent US7241724B2, “Personal care compositions comprising alkyl phosphate surfactants and selected auxiliary surfactants” (priority 2005, dated 2007)

System: Zein protein
Experiment: Zein solubilization test (mildness)
Experimental: • 1. Prepare a 5 wt. % aqueous solution of the surfactant. If the natural pH of the system differs from that desired, adjust by incremental addition of acid or base. • 2. Mix 4 grams of Zein protein in 40 grams of the surfactant solution. Allow the mixture to stand at room temperature for 24 hours with frequent vigorous shaking. • 3. Filter the supernatant of the Zein/surfactant mixture using a syringe filter with a 0.45 micron Nylon membrane. Dilute the filtered solution 100-fold with 2% SDS solution (i.e., 0.1 gram filtered solution diluted in 10 grams of 2% SDS solution). As a reference, also prepare a diluted surfactant solution by mixing 0.1 grams of 5 wt. % surfactant solution with 10 grams of 2% SDS solution. • 4. The Zein concentration is determined using a UV/VIS spectrophotometer operated in the range 200-350 nm at a scanning rate of 800 nm/min, using a 2% SDS solution as the background. […] The Zein solubility in the 5 wt. % surfactant solution is C, times the dilution factor.
[…] Zein and surfactant were contacted for 24 hours.
Zein tests reported in Table V were all conducted at 45° C. rather than at room temperature.

- Percent Zein Solubilized (Table I, pH 6.0, 5% total surfactant solutions, Zein and surfactant contacted 24 hours): 4.64%
- Percent Zein Solubilized (Table II, comparators at pH 6.0): 4.11%
- Percent Zein Solubilized (Table IV, C12 MAP blended with other carboxylic acids, pH 5.0): 3.52%
- Percent Zein Solubilized (Table V, C12 MAP blended with fatty alcohols, pH 5.0, conducted at 45° C.): 3.52%
- Percent Zein Solubilized (Table VI, negative controls, strong acid auxiliary agents, pH 5.0): 3.52%
- Percent Zein Solubilized (Table VII, C12 MAP acid 60/40 weight ratio with auxiliary, combined 5% in water, amino acid counterion to pH 5, listed as 42): 3.55%
- Percent Zein Solubilized (Table VII, C12 MAP acid 60/40 weight ratio with auxiliary, combined 5% in water, amino acid counterion to pH 5, listed as 46): 3.42%
Substance: Sodium lauryl ether sulfate [SLES]
